Results taken from patent US10550143B2, “C,O-spiro aryl glycoside compounds, preparation therefor and use thereof” (SHANGHAI INSTITUTE OF MATERIA MEDICA, CHINESE ACADEMY OF …, priority 2015, dated 2020).
One block for each compound: values may come before it.

How the values were obtained:
[1] = target: T1, human sodium-glucose cotransporter 2 (SGLT2) (Homo sapiens, UniProt P31639); test: In vitro SGLT2 inhibition, methyl-α-D-[U-14C]glucopyranoside uptake in NIH3T3-hSGLT2 cells; format: cell-based; details: for inhibition at 0.01 µM: SGLT2, 10 nM, read-out: % Inhibition rate ± SD 10 nM; for inhibition at 0.1 µM: SGLT2, 100 nM, read-out: % Inhibition rate ± SD 100 nM
T1 construct: expressed in transfected cells; host or cells: NIH3T3 (mouse fibroblast) cells expressing hSGLT2
T1 sequence (P31639 1-672): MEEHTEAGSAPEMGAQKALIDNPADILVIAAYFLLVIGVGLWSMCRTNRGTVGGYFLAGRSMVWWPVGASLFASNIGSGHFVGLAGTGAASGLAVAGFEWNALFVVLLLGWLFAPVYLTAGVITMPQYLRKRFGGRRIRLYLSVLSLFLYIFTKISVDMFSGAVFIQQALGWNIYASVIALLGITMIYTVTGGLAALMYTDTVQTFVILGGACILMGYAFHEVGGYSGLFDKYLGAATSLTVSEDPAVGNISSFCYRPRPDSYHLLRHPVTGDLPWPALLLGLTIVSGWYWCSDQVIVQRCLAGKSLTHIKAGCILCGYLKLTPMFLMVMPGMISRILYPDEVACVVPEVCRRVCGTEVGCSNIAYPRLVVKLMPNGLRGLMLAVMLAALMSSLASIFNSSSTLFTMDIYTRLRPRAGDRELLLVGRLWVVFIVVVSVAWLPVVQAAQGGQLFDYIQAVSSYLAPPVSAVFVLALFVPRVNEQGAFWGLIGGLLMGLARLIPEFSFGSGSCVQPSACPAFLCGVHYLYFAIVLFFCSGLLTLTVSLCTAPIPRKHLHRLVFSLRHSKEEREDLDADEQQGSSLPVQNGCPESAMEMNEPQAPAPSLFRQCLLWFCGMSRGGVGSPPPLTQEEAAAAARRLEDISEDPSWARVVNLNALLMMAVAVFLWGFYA
Experimental: Inhibition of the compounds of formula I against human sodium-glucose cotransporter 2 (SGLT2) was determined experimentally and the experimental procedures were carried out as reference^1.
Methyl-α-D-[U-^14C] glucopyranoside (Perkin Elmer) Dimethylsulfoxide (Genebase, Prod No: 0231)
(1) Primary screening of hSGLT2 are conducted with two concentrations, 100 nM and 10 nM;
SGLT2 transports D-glucose at 1:1 sodium-glucose ratio, glucose is replaced by the non-metabolic and isotope labeled methyl-aD-[U-^14C] glucopyranoside and methyl-aD-glucopyranoside, and the amount of isotope transferred into the cells was determined.
1) 0.2% gelatin in a 96-well plate was put in a 37° C. incubator for further use;
2) NIH3T3-hSGLT2 cells were injected into 96-well plates, 40000/well, and 100 μL culture medium per well:
3) the fluid was changed in the next day, and sodium butyrate was added into medium at a final concentration of 2 mM;
4) wash the cells with 100 μL of KRH—Na^+ for 3 times and incubate cells with 50 μL for 30 minutes. Cells were changed to 50 μL of compound in KRH—Na^+, uptake buffer (KRH—Na^+ and methyl-α-D-[U-^14C]glucopyranoside and ⅙ mM methyl-α-D-glucopyranoside at 10 μL per well) was added; KRH-acetylcholine solution was used as background control instead of KRH-Na^+
5) washed with 100 μL PBS for 3 times, dried, 50 μL lysate and 150 μL scintillation fluid were added, the membrane was covered and flattened, shaken on a shaker to mix thoroughly, centrifuged at 1500 rpm at 4° C. for 3 min, taken out and read;
6) the results were analyses.
The inhibition rate (% Inhibiton) of each sample at each concentration was calculated by dividing the value of the compound well value minus the background value by the value of the DMSO control well value minus the background value.
IC50 is calculated as follows: […]
The y value is the activity or inhibition percent, the x value is the concentration of the corresponding compound, top (the maximum y value of the curve), bottom (the minimum y value of the curve).

db/db mice = test: Chronic administration, random blood glucose in db/db mice; format: in vivo, mouse; details: for random blood glucose Pre: before administration; for Hypoglycemic rate % week 1 / Hypoglycemic rate % week 2 / Hypoglycemic rate % week 3 / Hypoglycemic rate % week 4: random blood glucose
Experimental: Oral gavage administrated, daily dose volume was 10 mL/kg, administered once daily. Administration time was 9: 00-10:00 daily, and the administration period was 5 weeks.
The random blood glucose of mice in the normal control group, model control group, test substance administration group and positive control group were determined on the 7th, 14th, 21st, 28th day (9: 00-10:00) every week after the first administration, and food was removed and after 6 hours of starvation, the fasting blood glucose in each group was measured. Free drinking during the hunger process. The rate of decrease of blood glucose was calculated according to the following formula: Average hypoglycemic rate %=(Blood glucose of model control group−Blood glucose of administration group)/Model control group×100%

SD rats = test: Acute single administration, urinary glucose changes in SD rats; format: in vivo, rat; parameters: Urine glucose concentration / The total amount of glucose excreted: unit not given here; details: 1 mg/kg oral, after 24 h
Experimental: (1) Acutely Administering Compound to Observed the Urinary Glucose Changes in SD Rats
Thirty-eight male normal SD rats were selected and randomly divided into 5 groups according to body weight and blood glucose, 6-8 in each group. […] After oral gavage, the rats were placed in rats metabolic cages, and urine was collected after 24 h, and the urine volume was recorded, the urine sugar concentration was determined, and urinary sugar content was calculated according to the following formula. Urine content=urinary sugar concentration×urine volume
Glucose levels in urine are measured by the glucose assay kit.
Data were expressed as mean±standard deviation (x±s), and Student's t test was used for statistical analysis of the data, p<0.05 was considered statistically significant.

SMILES: C[C@H]1O[C@]2(OCc3ccc(Cc4ccc5ccccc5c4)cc32)[C@H](O)[C@@H](O)[C@@H]1O [Example A14, (1S,3′R,4′S,5′S,6′R)-6′-methyl-6-(naphthyl-2-methyl)-3′,4′,5′,6′-tetrahydro-3H-spiro [isobenzofuran-1,2′-pyran]-3′,4′,5′-triol]
inhibition at 0.01 µM [1]: 25.8 ± 15%
inhibition at 0.1 µM [1]: 55.8 ± 13.2%

SMILES: COc1ccc(Cc2ccc3c(c2)[C@]2(OC3)O[C@H](C)[C@@H](O)[C@H](O)[C@H]2O)cc1 [Example A5, (1S,3′R,4′S,5′S,6′R)-6′-methyl-6-(4-methoxybenzyl)-3′,4′,5′,6′-tetrahydro-3H-spiro[isobenzofuran-1,2′-pyran]-3′,4′,5′-triol]
inhibition at 0.01 µM [1]: 26 ± 14%
inhibition at 0.1 µM [1]: 28.9 ± 7.2%

SMILES: COc1ccc(Cc2cc3c(cc2Cl)CO[C@]32O[C@H](C)[C@@H](O)[C@H](O)[C@H]2O)cc1 [Example A25, (1S,3′R,4′S,5′S,6′R)-6′-methyl-6-(4-methoxybenzyl)-5-chloro-3′,4′,5′,6′-tetrahydro-3H-spiro[isobenzofuran-1,2′-pyran]-3′,4′,5′-triol]
inhibition at 0.01 µM [1]: 91.8 ± 5.1%
inhibition at 0.1 µM [1]: 101 ± 2.2%

SMILES: CCc1ccc(Cc2ccc3c(c2)[C@]2(OC3)O[C@H](C)[C@@H](O)[C@H](O)[C@H]2O)s1 [Example A8, (1S,3′R,4′S,5′S,6′R)-6′-methyl-6-((5-ethylthienyl)-2-methyl)-3′,4′,5′,6′-tetrahydro-3H-spiro [isobenzofuran-1,2′-pyran]-3′,4′,5′-triol]
inhibition at 0.01 µM [1]: 30.4 ± 4.8%
inhibition at 0.1 µM [1]: 59.1 ± 5.3%
IC50 ([1]; read-out: IC50 ± SD SGLT2): 285 ± 117 nM

SMILES: C[C@H]1O[C@]2(OCc3cc(Cl)c(Cc4ccc(-c5ccccn5)s4)cc32)[C@H](O)[C@@H](O)[C@@H]1O [Example A33]
inhibition at 0.01 µM [1]: 25 ± 9.3%
inhibition at 0.1 µM [1]: 20.7 ± 7.5%

SMILES: C[C@H]1O[C@]2(OCc3ccc(Cc4ccc(Cl)s4)cc32)[C@H](O)[C@@H](O)[C@@H]1O [Example A10, (1S,3′R,4′S,5′S,6′R)-6′-methyl-6-((5-chlorothienyl)-2-methyl)-3′,4′,5′,6′-tetrahydro-3H-spiro [isobenzofuran-1,2′-pyran]-3′,4′,5′-triol]
inhibition at 0.01 µM [1]: 28.1 ± 25.8%
inhibition at 0.1 µM [1]: 45.8 ± 10.2%

SMILES: CC(C)c1ccc(Cc2ccc3c(c2)[C@]2(OC3)O[C@H](C)[C@@H](O)[C@H](O)[C@H]2O)cc1 [Example A4, (1S,3′R,4′S,5′S,6′R)-6′-methyl-6-(4-isopropylbenzyl)-3′,4′,5′,6′-tetrahydro-3H-spiro[isobenzofuran-1,2′-pyran]-3′,4′,5′-triol]
inhibition at 0.01 µM [1]: 34.1 ± 23.6%
inhibition at 0.1 µM [1]: 42.2 ± 3.5%

SMILES: C[C@H]1O[C@]2(OCc3ccc(Cc4cc5ccccc5o4)cc32)[C@H](O)[C@@H](O)[C@@H]1O [Example A16, (1S,3′R,4′S,5′S,6′R)-6′-methyl-6-(benzo[b]furan-2-methyl)-3′,4′,5′,6′-tetrahydro-3H-spiro [isobenzofuran-1,2′-pyran]-3′,4′,5′-triol]
inhibition at 0.01 µM [1]: 27.5 ± 19.6%
inhibition at 0.1 µM [1]: 39 ± 16.1%

SMILES: C[C@H]1O[C@]2(OCc3cc(F)c(Cc4cc5ccccc5s4)cc32)[C@H](O)[C@@H](O)[C@@H]1O [Example A47, (1S,3′R,4′S,5′S,6′R)-6′-methyl-6-(benzo[b]thiophene-2-methyl)-5-fluoro-3,4′,5′,6′-tetrahydro-3H-spiro [isobenzofuran-1,2′-pyran]-3′,4′,5′-triol]
inhibition at 0.01 µM [1]: 19.4 ± 0.5%
inhibition at 0.1 µM [1]: 50.2 ± 10.8%

SMILES: C[C@H]1O[C@]2(OCc3ccc(Cc4ccc(-c5ccccc5)s4)cc32)[C@H](O)[C@@H](O)[C@@H]1O [Example A12, (1S,3′R,4′S,5′S,6′R)-6′-methyl-6-((5-phenylthienyl)-2-methyl)-3′,4′,5′,6′-tetrahydro-3H-spiro [isobenzofuran-1,2′-pyran]-3′,4′,5′-triol]
inhibition at 0.01 µM [1]: 20.4 ± 28.4%
inhibition at 0.1 µM [1]: 49.1 ± 20%

The next lines start with results.

inhibition at 0.01 µM [1]: 59.6 ± 11.3%
inhibition at 0.1 µM [1]: 103 ± 2.8%
SMILES: CCOc1ccc(Cc2cc([C@@H]3O[C@H](CO)[C@@H](O)[C@H](O)[C@H]3O)ccc2Cl)cc1 [dapagliflozin, reference compound]
random blood glucose week 1 (db/db mice; 1 mg/kg once daily oral): 14.9 ± 0.9 mmol/L
random blood glucose week 2 (db/db mice; 1 mg/kg once daily oral): 14.9 ± 1.1 mmol/L
random blood glucose week 3 (db/db mice; 1 mg/kg once daily oral): 14.9 ± 1.0 mmol/L
random blood glucose week 4 (db/db mice; 1 mg/kg once daily oral): 14.4 ± 1.1 mmol/L
random blood glucose Pre (db/db mice; 1 mg/kg once daily oral): 19.3 ± 1.2 mmol/L
random blood glucose week 1 (db/db mice; 3 mg/kg once daily oral): 13.4 ± 0.8 mmol/L
random blood glucose week 2 (db/db mice; 3 mg/kg once daily oral): 14.1 ± 0.8 mmol/L
random blood glucose week 3 (db/db mice; 3 mg/kg once daily oral): 15.2 ± 1.2 mmol/L
random blood glucose week 4 (db/db mice; 3 mg/kg once daily oral): 11.7 ± 1.0 mmol/L
random blood glucose Pre (db/db mice; 3 mg/kg once daily oral): 17.5 ± 1.2 mmol/L
Hypoglycemic rate % week 1 (db/db mice; 1 mg/kg once daily oral): 24.0%
Hypoglycemic rate % week 2 (db/db mice; 1 mg/kg once daily oral): 23.6%
Hypoglycemic rate % week 3 (db/db mice; 1 mg/kg once daily oral): 26.4%
Hypoglycemic rate % week 4 (db/db mice; 1 mg/kg once daily oral): 30.5%
Hypoglycemic rate % week 1 (db/db mice; 3 mg/kg once daily oral): 32.0%
Hypoglycemic rate % week 2 (db/db mice; 3 mg/kg once daily oral): 27.7%
Hypoglycemic rate % week 3 (db/db mice; 3 mg/kg once daily oral): 25.4%
Hypoglycemic rate % week 4 (db/db mice; 3 mg/kg once daily oral): 43.8%
The total amount of glucose excreted (SD rats; Table 3): 1860.61 ± 575.28
Urine glucose concentration (SD rats; Table 3): 251.92 ± 52.98
Urine volume (SD rats; Table 3, in mL): 40.75 ± 8.60
The total amount of glucose excreted (SD rats; Table 4): 1822.21 ± 112.97
Urine glucose concentration (SD rats; Table 4): 382.41 ± 35.64
Urine volume (SD rats; Table 4, in mL): 26.67 ± 3.01

inhibition at 0.01 µM [1]: 78.1 ± 5.1%
inhibition at 0.1 µM [1]: 53.8 ± 5.5%
SMILES: CCOCCc1ccc(Cc2cc3c(cc2Cl)CO[C@]32O[C@H](C)[C@@H](O)[C@H](O)[C@H]2O)s1 [Example A115, (1S,3′R,4′S,5′S,6′R)-5-chloro-6-((5-(2-ethoxyethyl)thiophene-2-yl)methyl)-6′-methyl-3′,4′,5′,6′-tetrahydro-3H-spiro[isobenzofuran-1,2′-pyran]-3′,4′,5′-triol]

inhibition at 0.01 µM [1]: 89.4 ± 1.5%
inhibition at 0.1 µM [1]: 62.3 ± 6%
SMILES: CCCOCCc1ccc(Cc2cc3c(cc2Cl)CO[C@]32O[C@H](C)[C@@H](O)[C@H](O)[C@H]2O)s1 [Example A116, (1S,3′R,4′S,5′S,6′R)-5-chloro-6-((5-(2-propoxyethyl)thiophene-2-yl)methyl)-6′-methyl-3′,4′,5′,6′-tetrahydro-3H-spiro[isobenzofuran-1,2′-pyran]-3′,4′,5′-triol]

inhibition at 0.01 µM [1]: 20.9 ± 16.3%
inhibition at 0.1 µM [1]: 22.5 ± 10.7%
SMILES: CCc1ccc(C(=O)c2cc3c(cc2Cl)CO[C@]32O[C@H](C)[C@@H](O)[C@H](O)[C@H]2O)s1 [Example A113, ((1S,3′R,4′S,5′S,6′R)-5-chloro-3′,4′,5′-trihydroxy-6′-methyl-3′,4′,5′,6′-tetrahydro-3H-spiro[isobenzofuran-1,2′-pyran]-6-yl)(5-ethylthiophene-2-yl)ketone]
